Numbers after ± are expanded uncertainties.
Experiment: molar heat capacity at constant pressure
Settings: 101.33 kPa, Crystal

| Compound | molar heat capacity at constant pressure (298.15 K) [J/K/mol] | molar heat capacity at constant pressure (303.15 K) [J/K/mol] | molar heat capacity at constant pressure (308.15 K) [J/K/mol] | molar heat capacity at constant pressure (313.15 K) [J/K/mol] | molar heat capacity at constant pressure (318.15 K) [J/K/mol] | molar heat capacity at constant pressure (323.15 K) [J/K/mol] | molar heat capacity at constant pressure (328.15 K) [J/K/mol] | molar heat capacity at constant pressure (333.15 K) [J/K/mol] | molar heat capacity at constant pressure (338.15 K) [J/K/mol] | molar heat capacity at constant pressure (343.15 K) [J/K/mol] |
| --- | --- | --- | --- | --- | --- | --- | --- | --- | --- | --- |
| Cn1c2c(c(=O)n(C)c1=O)CCCCC2 | 314.5 ± 9.7 | 321.6 ± 10 | 329 ± 10 | 333.6 ± 10 | 341.1 ± 11 | 347.9 ± 11 | 353.3 ± 11 | 358.4 ± 11 | 363.2 ± 11 | 367.3 ± 11 |
| Cc1cc(=O)n(C)c(=O)n1C [1,3,6-trimethyl-2,4(1H,3H)-pyrimidinedione] | 212.6 ± 7.2 | 213.5 ± 7.2 | 217.1 ± 7.3 | 218.5 ± 7.4 | 219.8 ± 7.4 | 223.4 ± 7.5 | 228.3 ± 7.6 | 229 ± 7.6 | 236.5 ± 7.8 | 239.6 ± 7.9 |
| Cn1ccc(=O)n(C)c1=O [1,3-dimethyl-2,4-(1H,3H)-pyrimidinedione] | 182.5 ± 5.7 | 185.4 ± 5.7 | 188.7 ± 5.8 | 191.2 ± 5.9 | 193.8 ± 6 | 196.4 ± 6.1 | 199.1 ± 6.2 | 201 ± 6.2 | 203.3 ± 6.3 | 206.8 ± 6.4 |
| Cn1c2c(c(=O)n(C)c1=O)CCCC2 [1,3-dimethyl-5,6,7,8-tetrahydroquinazoline-2,4(1H,3H)-dione] | 282.9 ± 8.8 | 291.2 ± 9 | 296.2 ± 9.2 | 305.8 ± 9.5 | 310.9 ± 9.6 | 319.8 ± 9.9 |  |  |  |  |
| Cn1c2c(c(=O)n(C)c1=O)CCC2 [1,3-dimethyl-5,6-trimethyleneuracil] | 252.9 ± 7.8 | 258.1 ± 8 | 261.8 ± 8.1 |  |  |  |  |  |  |  |
| Cc1cn(C)c(=O)[nH]c1=O [1,5-dimethyluracil] | 187.6 ± 5.8 | 190 ± 5.9 | 190.3 ± 5.9 | 194.1 ± 6 | 194.8 ± 6 | 198.5 ± 6.2 | 199.2 ± 6.2 | 202 ± 6.3 | 203 ± 6.3 | 205.2 ± 6.4 |
| Cc1cc(=O)[nH]c(=O)n1C [1,6-dimethyluracil] | 188.1 ± 7 | 194.3 ± 7.2 | 197.9 ± 7.2 | 202.6 ± 7.3 | 206.8 ± 7.4 | 211 ± 7.5 | 217.9 ± 7.7 | 225.1 ± 7.9 | 233.1 ± 8 | 239.8 ± 8.2 |
| Cn1ccc(=O)[nH]c1=O [1-methyl-2,4(1H,3H)-pyrimidinedione] | 156.9 ± 4.9 | 167.2 ± 5.2 | 179.6 ± 5.6 | 190.9 ± 5.9 | 200.5 ± 6.2 | 211.1 ± 6.5 | 223 ± 6.9 | 235 ± 7.3 | 245.9 ± 7.6 | 256.1 ± 7.9 |
| Cc1c(C)n(C)c(=O)n(C)c1=O [2,4(1H,3H)-pyrimidinedione, 1,3,5,6-tetramethyl-] | 244.5 ± 7.9 | 248.8 ± 8 | 254 ± 8.1 | 256.5 ± 8.2 | 260.9 ± 8.3 | 266.7 ± 8.4 | 271.2 ± 8.6 | 276.6 ± 8.7 | 282.3 ± 8.8 | 291.5 ± 9.1 |
| CCCc1cn(C)c(=O)n(C)c1=O [2,4(1H,3H)-pyrimidinedione, 1,3-dimethyl-5-propyl-] | 302.7 ± 9.4 | 302.7 ± 9.4 | 302.8 ± 9.4 | 303 ± 9.4 | 306.2 ± 9.5 | 308.4 ± 9.6 |  |  |  |  |
| CCCc1cc(=O)n(C)c(=O)n1C [2,4(1H,3H)-pyrimidinedione, 1,3-dimethyl-6-propyl-] | 287.2 ± 10 | 288.8 ± 10 | 290.5 ± 10 | 292.2 ± 10 | 293.9 ± 10 | 303.9 ± 10 |  |  |  |  |
| CCCCc1cn(C)c(=O)n(C)c1=O [2,4(1H,3H)-pyrimidinedione, 5-butyl-1,3-dimethyl-] | 358.1 ± 14 | 544.2 ± 22 |  |  |  |  |  |  |  |  |
| CCc1cn(C)c(=O)n(C)c1=O [2,4(1H,3H)-pyrimidinedione, 5-ethyl-1,3-dimethyl-] | 241.1 ± 8.5 | 250.1 ± 8.7 | 256.5 ± 8.8 | 261 ± 8.9 | 264.3 ± 9 | 267.4 ± 9.1 | 270.7 ± 9.1 | 275.2 ± 9.3 | 281.7 ± 9.4 | 291.1 ± 9.6 |
| CCCCc1cc(=O)n(C)c(=O)n1C [2,4(1H,3H)-pyrimidinedione, 6-butyl-1,3-dimethyl-] | 296.4 ± 9.2 | 297.9 ± 9.2 | 299.4 ± 9.3 | 300.9 ± 9.3 | 302.1 ± 9.4 | 305.3 ± 9.5 |  |  |  |  |
| CCc1cc(=O)n(C)c(=O)n1C [2,4(1H,3H)-pyrimidinedione, 6-ethyl-1,3-dimethyl-] | 241.8 ± 9.6 | 243.4 ± 9.7 | 245.3 ± 9.7 | 246.3 ± 9.7 | 248.3 ± 9.8 | 259.6 ± 10 |  |  |  |  |

From the NIST ThermoML archive (doi:10.1021/je060257y)
